This is an account of results in patent publication US8383094B2, “Hepatitis C virus inhibitors” (Bristol-Myers Squibb Company, priority 2008, dated 2013).

Some results are limits rather than exact numbers.

The test system of the first assay is HCV 1b genotype. The assay can be described thus: HCV Replicon assay (HCV-neo replicon cells, wild-type). Conditions: Hepatitis C virus, HCV 1b genotype replicon; range class A-D; read-out: 1b EC50 (in μM or range). The format is cell-based. On the procedure:
An HCV Replicon assay was utilized in the present disclosure, and was prepared, conducted and validated as described in commonly owned PCT/US2006/022197 and in O′Boyle et. al. Antimicrob Agents Chemother, 2005 April; 49(4):1346-53. Assay methods incorporating luciferase reporters have also been used as described (Apath.com).
HCV-neo replicon cells and replicon cells containing mutations in the NS5A region were used to test the currently described family of compounds. The compounds were determined to have more than 10-fold less inhibitory activity on cells containing mutations than wild-type cells. Thus, the compounds of the present disclosure can be effective in inhibiting the function of the HCV NS5A protein and are understood to be as effective in combinations as previously described in application PCT/US2006/022197 and commonly owned WO/04014852. Further, the compounds of the present disclosure can be effective against the HCV 1b genotype. It should also be understood that the compounds of the present disclosure can inhibit multiple genotypes of HCV. […] In one embodiment, compounds of the present disclosure are inhibitory versus 1a, 1b, 2a, 2b, 3a, 4a, and 5a genotypes.
Background: A replicon is a self-replicating genome or part of one, used to study replication in cells.
What is called EC50 is the concentration needed to bring the measured effect to its halfway point. For the compound `O=C(Nc1ccc(C#Cc2ccc(NC(=O)[C@@H]3CCCN3C(=O)c3nc(Cl)cc4ccccc34)cc2)cc1)[C@@H]1CCCN1C(=O)Cc1cccnc1` [Example D40, (2S)-1-((3-Chloro-1-isoquinolinyl)carbonyl)-N-(4-((4-((((2S)-1-(3-pyridinylacetyl)-2-pyrrolidinyl)carbonyl)amino)phenyl)ethynyl)phenyl)-2-pyrrolidinecarboxamide], the EC50 lay within 0.00457 to 0.099 µM. Regarding `O=C(Nc1ccc(C#Cc2ccc(NC(=O)[C@@H]3CCCN3C(=O)[C@@H](O)c3ccccc3)cc2)cc1)[C@@H]1CCCN1C(=O)[C@@H](O)c1ccccc1` [Example D41, (2S,2′S)-N,N′-(1,2-ethynediyldi-4,1-phenylene)bis(1-((2S)-2-hydroxy-2-phenylacetyl)-2-pyrrolidinecarboxamide)], the concentration giving a half-maximal response (EC50) is below 0.00457 µM. For `O=C(Nc1ccc(C#Cc2ccc(NC(=O)[C@@H]3CCCN3C(=O)[C@H](O)c3ccccc3)cc2)cc1)[C@@H]1CCCN1C(=O)[C@H](O)c1ccccc1` [Example D43, (2S,2′S)-N,N′-(1,2-ethynediyldi-4,1-phenylene)bis(1-((2R)-2-hydroxy-2-phenylacetyl)-2-pyrrolidinecarboxamide)], the concentration giving a half-maximal response (EC50) was below 0.00457 µM. In the case of `O=C(Nc1ccc(C#Cc2ccc(NC(=O)[C@@H]3CCCN3C(=O)[C@H](O)c3ccccc3)cc2)cc1)[C@@H]1CCCN1C(=O)c1nc(Cl)cc2ccccc12` [Example D44, (2S)-1-((3-Chloro-1-isoquinolinyl)carbonyl)-N-(4-((4-((((2S)-1-((2R)-2-hydroxy-2-phenylacetyl)-2-pyrrolidinyl)carbonyl)amino)phenyl)ethynyl)phenyl)-2-pyrrolidinecarboxamide], the EC50 was below 0.00457 µM. Still for that read-out and setting: the value for `COc1cccc2c(C(=O)N3CCC[C@H]3C(=O)Nc3ccc(C#Cc4ccc(NC(=O)[C@@H]5CCCN5C(=O)Cc5cccnc5)cc4)cc3)nc(Cl)cc12` [Example D45, (2S)-1-((3-Chloro-5-methoxy-1-isoquinolinyl)carbonyl)-N-(4-((4-((((2S)-1-(3-pyridinylacetyl)-2-pyrrolidinyl)carbonyl)amino)phenyl)ethynyl)phenyl)-2-pyrrolidinecarboxamide] was 0.1 to 0.999 µM; that for `COc1cccc2c(C(=O)N3CCC[C@H]3C(=O)Nc3ccc(C#Cc4ccc(NC(=O)[C@@H]5CCCN5C(C)=O)cc4)cc3)nc(Cl)cc12` [Example D46, (2S)-1-Acetyl-N-(4-((4-((((2S)-1-((3-chloro-5-methoxy-1-isoquinolinyl)carbonyl)-2-pyrrolidinyl)carbonyl)amino)phenyl)ethynyl)phenyl)-2-pyrrolidinecarboxamide] was 0.1 to 0.999 µM. Same read-out and setting: the result for `COc1cccc2c(C(=O)N3CCC[C@H]3C(=O)Nc3ccc(C#Cc4ccc(NC(=O)[C@@H]5CCCN5C(=O)CC5CC5)cc4)cc3)nc(Cl)cc12` [Example D47, (2S)-1-((3-Chloro-5-methoxy-1-isoquinolinyl)carbonyl)-N-(4-((4-((((2S)-1-(cyclopropylacetyl)-2-pyrrolidinyl)carbonyl)amino)phenyl)ethynyl)phenyl)-2-pyrrolidinecarboxamide] reads 0.00457 to 0.099 µM; that for `O=C(Nc1ccc(C#Cc2ccc(NC(=O)[C@@H]3CCCN3C(=O)Cc3ccccc3)nc2)cn1)[C@@H]1CCCN1C(=O)Cc1ccccc1` [Example D48, (2S,2′S)-N,N′-(1,2-ethynediyldi-5,2-pyridinediyl)bis(1-(phenylacetyl)-2-pyrrolidinecarboxamide)], below 0.00457 µM; that for `O=C(Nc1ccc(C#Cc2ccc(NC(=O)[C@@H]3CCCN3C(=O)/C=C/c3ccccc3)nc2)cn1)[C@@H]1CCCN1C(=O)/C=C/c1ccccc1` [Example D49, (2S,2′S)-N,N′-(1,2-ethynediyldi-5,2-pyridinediyl)bis(1-((2E)-3-phenyl-2-propenoyl)-2-pyrrolidinecarboxamide)], 0.1 to 0.999 µM. With `C[C@@H](C(=O)N1CCC[C@H]1C(=O)Nc1ccc(C#Cc2ccc(NC(=O)[C@@H]3CCCN3C(=O)[C@H](C)c3ccccc3)nc2)cn1)c1ccccc1` [Example D50, (2S,2′S)-N,N′-(1,2-ethynediyldi-5,2-pyridinediyl)bis(1-((2R)-2-phenylpropanoyl)-2-pyrrolidinecarboxamide)], the concentration for a half-maximal effect (EC50) is below 0.00457 µM. On to `C[C@@](O)(C(=O)N1CCC[C@H]1C(=O)Nc1ccc(C#Cc2ccc(NC(=O)[C@@H]3CCCN3C(=O)[C@@](C)(O)c3ccccc3)nc2)cn1)c1ccccc1` [Example D51, (2S,2′S)-N,N′-(1,2-ethynediyldi-5,2-pyridinediyl)bis(1-((2S)-2-hydroxy-2-phenylpropanoyl)-2-pyrrolidinecarboxamide)], for which the concentration giving a half-maximal response (EC50) is below 0.00457 µM.

As for `O=C(Nc1ccc(C#Cc2ccc(NC(=O)[C@@H]3CCCN3C(=O)Cc3ccccc3)cn2)nc1)[C@@H]1CCCN1C(=O)Cc1ccccc1` [Example D52, (2S,2′S)-N,N′-(6,6′-(ethyne-1,2-diyl)bis(pyridine-6,3-diyl))bis(1-(2-phenylacetyl)pyrrolidine-2-carboxamide)], the EC50 fell in the range of 0.00457 to 0.099 µM. The same measure, in the same setting: the result for `C[C@@H](C(=O)N1CCC[C@H]1C(=O)Nc1ccc(C#Cc2ccc(NC(=O)[C@@H]3CCCN3C(=O)[C@H](C)c3ccccc3)cn2)nc1)c1ccccc1` [Example D54, (2S,2′S)-N,N′-(1,2-ethynediyldi-2,5-pyridinediyl)bis(1-((2R)-2-phenylpropanoyl)-2-pyrrolidinecarboxamide)] reads below 0.00457 µM. In the case of `CC(=O)N1CCC[C@H]1C(=O)Nc1ccc(C#Cc2ccc(NC(=O)[C@@H]3CCCN3C(=O)Cc3ccccc3)nc2)cc1` [Example D55, (2S)-1-Acetyl-N-(4-((6-((((2S)-1-(phenylacetyl)-2-pyrrolidinyl)carbonyl)amino)-3-pyridinyl)ethynyl)phenyl)-2-pyrrolidinecarboxamide], the EC50 was in the range of 0.1 to 0.999 µM. Turning to `CC(=O)N1CCC[C@H]1C(=O)Nc1ccc(C#Cc2ccc(NC(=O)[C@@H]3CCCN3C(=O)Cc3cccnc3)nc2)cc1` [Example D57, (2S)-1-Acetyl-N-(4-((6-((((2S)-1-(3-pyridinylacetyl)-2-pyrrolidinyl)carbonyl)amino)-3-pyridinyl)ethynyl)phenyl)-2-pyrrolidinecarboxamide], the EC50 is 1 to 10 µM.

Take `CN(C)c1ccc(C#Cc2ccc(NC(=O)[C@@H]3CCCN3C(=O)[C@@H](c3ccccc3)N(C)C)cc2)cc1` [Example D60, (S)-1-((R)-2-(dimethylamino)-2-phenylacetyl)-N-(4-((4-(dimethylamino)phenyl)ethynyl)phenyl)pyrrolidine-2-carboxamide]: the EC50 lay within 0.1 to 0.999 µM. Still for that read-out and setting: the result for `CC(C)(C)OC(=O)Nc1ccc(C#Cc2ccc(NC(=O)[C@@H]3CCCN3C(=O)[C@H](O)c3ccccc3)cc2)cc1` [Example D60.1, tert-Butyl 4-((4-((S)-1-((R)-2-hydroxy-2-phenylacetyl)pyrrolidine-2-carboxamido)phenyl)ethynyl)phenylcarbamate] reads 0.1 to 0.999 µM.

Still in this assay, the particulars now being: Hepatitis C virus, HCV 1b genotype replicon; read-out: 1b EC50 (in μM or range).
In the case of `O=C(Nc1ccc(C#Cc2ccc(NC(=O)[C@@H]3CCCN3C(=O)[C@@H](O)c3ccccc3)cc2)cc1)[C@@H]1CCCN1C(=O)c1nc(Cl)cc2ccccc12` [Example D42, (2S)-1-((3-Chloro-1-isoquinolinyl)carbonyl)-N-(4-((4-((((2S)-1-((2S)-2-hydroxy-2-phenylacetyl)-2-pyrrolidinyl)carbonyl)amino)phenyl)ethynyl)phenyl)-2-pyrrolidinecarboxamide], the EC50 was determined as 0.017 µM. On the same count and under the same terms, the value for `O=C(Nc1ccc(C#Cc2ccc(NC(=O)[C@@H]3CCCN3C(=O)/C=C/c3ccccc3)cn2)nc1)[C@@H]1CCCN1C(=O)/C=C/c1ccccc1` [Example D53, (2S,2′S)-N,N′-(1,2-ethynediyldi-2,5-pyridinediyl)bis(1-((2E)-3-phenyl-2-propenoyl)-2-pyrrolidinecarboxamide)] was 2.73 µM; that for `CC(=O)N1CCC[C@H]1C(=O)Nc1ccc(C#Cc2ccc(NC(=O)[C@@H]3CCCN3C(=O)c3nccc4ccccc34)nc2)cc1` [Example D56, (2S)-1-Acetyl-N-(4-((6-((((2S)-1-(1-isoquinolinylcarbonyl)-2-pyrrolidinyl)carbonyl)amino)-3-pyridinyl)ethynyl)phenyl)-2-pyrrolidinecarboxamide] was 2.09 µM; that for `CC(=O)N1CCC[C@H]1C(=O)Nc1ccc(C#Cc2ccc(NC(=O)[C@@H]3CCCN3C(=O)c3cccc4cccnc34)nc2)cc1` [Example D58, (2S)-1-Acetyl-N-(4-((6-((((2S)-1-(8-quinolinylcarbonyl)-2-pyrrolidinyl)carbonyl)amino)-3-pyridinyl)ethynyl)phenyl)-2-pyrrolidinecarboxamide] was above 10 µM.

Consider `CC(=O)N1CCC[C@H]1C(=O)Nc1ccc(C#Cc2ccc(NC(=O)[C@@H]3CCCN3C(=O)c3cccc4ccccc34)nc2)cc1` [Example D59, (2S)-1-Acetyl-N-(4-((6-((((2S)-1-(1-naphthoyl)-2-pyrrolidinyl)carbonyl)amino)-3-pyridinyl)ethynyl)phenyl)-2-pyrrolidinecarboxamide], for which the concentration for a half-maximal effect (EC50) is 1.48 µM.

Still in this assay, the particulars now being: Hepatitis C virus, read-out: 1b EC50 (in μM or range), HCV 1b genotype replicon; range class A-D.
Turning to `CN1CCN(C(C(=O)N2CCC[C@H]2C(=O)Nc2ccc(C#Cc3ccc(NC(=O)[C@@H]4CCCN4C(=O)C(c4ccccc4)N4CCN(C)CC4)cc3)cc2)c2ccccc2)CC1` (stereo partly drawn) [VA44, (2S,2′S)-N,N′-(1,2-ethynediyldi-4,1-phenylene)bis(1-((4-methyl-1-piperazinyl)(phenyl)acetyl)-2-pyrrolidinecarboxamide)], the concentration giving a half-maximal response (EC50) was below 0.00457 µM.
